System: 463943-066-T-J2-PDC complex spheroid growth
Assay: Anticancer human tumor 463943-066-T-J2-PDC patient-derived colon adenocarcinoma cell line growth inhibition [Asc]
Settings: for IC50: curve of first compound; for viability, T/C: stronger effect = lower value
In short: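 Spheroid model: tumor line + HUVEC + hMSC. Single agents and combinations; top conc. at/near clinical Cmax (10 microM if undetermined), half-log dilutions. DMSO stocks at 800-fold test concentration.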

[1] = second compound 0.0316 µM, first compound 0.00316 µM
[2] = second compound 0.0316 µM, first compound 0.01 µM
[3] = second compound 0.0316 µM, first compound 0.0316 µM
[4] = second compound 0.0316 µM, first compound 0.1 µM
[5] = second compound 0.0316 µM, first compound 0.316 µM
[6] = second compound 0.0316 µM, first compound 1 µM
[7] = second compound 0.1 µM, first compound 0.00316 µM
[8] = second compound 0.1 µM, first compound 0.01 µM
[9] = second compound 0.1 µM, first compound 0.0316 µM
[10] = second compound 0.1 µM, first compound 0.1 µM
[11] = second compound 0.1 µM, first compound 0.316 µM
[12] = second compound 0.1 µM, first compound 1 µM
[13] = second compound 0.316 µM, first compound 0.00316 µM
[14] = second compound 0.316 µM, first compound 0.01 µM
[15] = second compound 0.316 µM, first compound 0.0316 µM
[16] = second compound 0.316 µM, first compound 0.1 µM
[17] = second compound 0.316 µM, first compound 0.316 µM
[18] = second compound 0.316 µM, first compound 1 µM
[19] = second compound 1 µM, first compound 0.00316 µM
[20] = second compound 1 µM, first compound 0.01 µM
[21] = second compound 1 µM, first compound 0.0316 µM
[22] = second compound 1 µM, first compound 0.1 µM
[23] = second compound 1 µM, first compound 0.316 µM
[24] = second compound 1 µM, first compound 1 µM
[25] = second compound 3.16 µM, first compound 0.00316 µM
[26] = second compound 3.16 µM, first compound 0.01 µM
[27] = second compound 3.16 µM, first compound 0.0316 µM
[28] = second compound 3.16 µM, first compound 0.1 µM
[29] = second compound 3.16 µM, first compound 0.316 µM
[30] = second compound 3.16 µM, first compound 1 µM
[31] = second compound 10 µM, first compound 0.00316 µM
[32] = second compound 10 µM, first compound 0.01 µM
[33] = second compound 10 µM, first compound 0.0316 µM
[34] = second compound 10 µM, first compound 0.1 µM
[35] = second compound 10 µM, first compound 0.316 µM
[36] = second compound 10 µM, first compound 1 µM
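Further: compound exposure lasted 7 days.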
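Wherever viability, T/C is given: 100% = DMSO vehicle control wells.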

## CCN1CCN(Cc2ccc(Nc3ncc(F)c(-c4cc(F)c5nc(C)n(C(C)C)c5c4)n3)nc2)CC1 + Cc1c(S(C)(=O)=O)c(-c2cc(F)cc(N3CCN(c4ccc(NS(=O)(=O)c5ccc(NC(CCN6CCC(C(=O)OCCCP(=O)(O)O)CC6)CSc6ccccc6)c(S(=O)(=O)C(F)(F)F)c5)cc4)CC3)c2)c(-c2ccc(Cl)cc2)n1C(C)C
Second compound 0.0316 µM
  IC50: > 1000 nM
Second compound 0.1 µM
  IC50: > 1000 nM
Second compound 0.316 µM
  IC50: > 1000 nM
Second compound 1 µM
  IC50: > 1000 nM
Second compound 3.16 µM
  IC50: > 1000 nM
Second compound 10 µM
  IC50: 393 nM
[1]
  viability, T/C: 98.2%
[2]
  viability, T/C: 104%
[3]
  viability, T/C: 87.9%
[4]
  viability, T/C: 96.6%
[5]
  viability, T/C: 109%
[6]
  viability, T/C: 106%
[7]
  viability, T/C: 94%
[8]
  viability, T/C: 95.5%
[9]
  viability, T/C: 92.1%
[10]
  viability, T/C: 90.5%
[11]
  viability, T/C: 103%
[12]
  viability, T/C: 96.8%
[13]
  viability, T/C: 90.9%
[14]
  viability, T/C: 91.2%
[15]
  viability, T/C: 84.4%
[16]
  viability, T/C: 88.5%
[17]
  viability, T/C: 90.3%
[18]
  viability, T/C: 90%
[19]
  viability, T/C: 79.7%
[20]
  viability, T/C: 81.3%
[21]
  viability, T/C: 76%
[22]
  viability, T/C: 79%
[23]
  viability, T/C: 80.6%
[24]
  viability, T/C: 72.3%
[25]
  viability, T/C: 61.8%
[26]
  viability, T/C: 61.5%
[27]
  viability, T/C: 62.4%
[28]
  viability, T/C: 62.9%
[29]
  viability, T/C: 60%
[30]
  viability, T/C: 56%
[31]
  viability, T/C: 49.1%
[32]
  viability, T/C: 52.6%
[33]
  viability, T/C: 51.4%
[34]
  viability, T/C: 52.9%
[35]
  viability, T/C: 51.2%
[36]
  viability, T/C: 44.8%

## Cn1ncnc1[C@H]1c2n[nH]c(=O)c3cc(F)cc(c23)N[C@@H]1c1ccc(F)cc1 + Cc1c(S(C)(=O)=O)c(-c2cc(F)cc(N3CCN(c4ccc(NS(=O)(=O)c5ccc(NC(CCN6CCC(C(=O)OCCCP(=O)(O)O)CC6)CSc6ccccc6)c(S(=O)(=O)C(F)(F)F)c5)cc4)CC3)c2)c(-c2ccc(Cl)cc2)n1C(C)C
Second compound 0.0316 µM
  IC50: > 100 nM
Second compound 0.1 µM
  IC50: > 100 nM
Second compound 0.316 µM
  IC50: > 100 nM
Second compound 1 µM
  IC50: > 100 nM
Second compound 3.16 µM
  IC50: > 100 nM
Second compound 10 µM
  IC50: < 0.316 nM
Second compound 0.0316 µM, first compound 0.000316 µM
  viability, T/C: 100%
Second compound 0.0316 µM, first compound 0.001 µM
  viability, T/C: 91.8%
[1]
  viability, T/C: 93.6%
[2]
  viability, T/C: 102%
[3]
  viability, T/C: 92.2%
[4]
  viability, T/C: 83%
Second compound 0.1 µM, first compound 0.000316 µM
  viability, T/C: 93%
Second compound 0.1 µM, first compound 0.001 µM
  viability, T/C: 94%
[7]
  viability, T/C: 87.2%
[8]
  viability, T/C: 91.6%
[9]
  viability, T/C: 92.3%
[10]
  viability, T/C: 80.1%
Second compound 0.316 µM, first compound 0.000316 µM
  viability, T/C: 91.1%
Second compound 0.316 µM, first compound 0.001 µM
  viability, T/C: 82%
[13]
  viability, T/C: 84.5%
[14]
  viability, T/C: 80.2%
[15]
  viability, T/C: 86.7%
[16]
  viability, T/C: 83.1%
Second compound 1 µM, first compound 0.000316 µM
  viability, T/C: 84.9%
Second compound 1 µM, first compound 0.001 µM
  viability, T/C: 74.4%
[19]
  viability, T/C: 76.6%
[20]
  viability, T/C: 79.8%
[21]
  viability, T/C: 85.2%
[22]
  viability, T/C: 71.2%
Second compound 3.16 µM, first compound 0.000316 µM
  viability, T/C: 61.7%
Second compound 3.16 µM, first compound 0.001 µM
  viability, T/C: 58.1%
[25]
  viability, T/C: 61%
[26]
  viability, T/C: 61%
[27]
  viability, T/C: 68.3%
[28]
  viability, T/C: 60.8%
Second compound 10 µM, first compound 0.000316 µM
  viability, T/C: 44.8%
Second compound 10 µM, first compound 0.001 µM
  viability, T/C: 50.5%
[31]
  viability, T/C: 47.6%
[32]
  viability, T/C: 46.8%
[33]
  viability, T/C: 56.2%
[34]
  viability, T/C: 45.6%

## O=C(c1ccc(F)c(F)c1Nc1ccc(I)cc1F)N1CC(O)([C@@H]2CCCCN2)C1 + Cc1c(S(C)(=O)=O)c(-c2cc(F)cc(N3CCN(c4ccc(NS(=O)(=O)c5ccc(NC(CCN6CCC(C(=O)OCCCP(=O)(O)O)CC6)CSc6ccccc6)c(S(=O)(=O)C(F)(F)F)c5)cc4)CC3)c2)c(-c2ccc(Cl)cc2)n1C(C)C
Second compound 0.0316 µM
  IC50: 95.2 nM
Second compound 0.1 µM
  IC50: 111 nM
Second compound 0.316 µM
  IC50: 55.9 nM
Second compound 1 µM
  IC50: 26.8 nM
Second compound 3.16 µM
  IC50: 9.46 nM
Second compound 10 µM
  IC50: < 3.16 nM
[1]
  viability, T/C: 92%
[2]
  viability, T/C: 80.6%
[3]
  viability, T/C: 61.6%
[4]
  viability, T/C: 52.2%
[5]
  viability, T/C: 35.1%
[6]
  viability, T/C: 28.1%
[7]
  viability, T/C: 88.2%
[8]
  viability, T/C: 76.3%
[9]
  viability, T/C: 64.6%
[10]
  viability, T/C: 50.5%
[11]
  viability, T/C: 38.7%
[12]
  viability, T/C: 24.4%
[13]
  viability, T/C: 85.7%
[14]
  viability, T/C: 77.8%
[15]
  viability, T/C: 51.2%
[16]
  viability, T/C: 45.2%
[17]
  viability, T/C: 34.3%
[18]
  viability, T/C: 24.8%
[19]
  viability, T/C: 73.4%
[20]
  viability, T/C: 61.6%
[21]
  viability, T/C: 47.1%
[22]
  viability, T/C: 36.7%
[23]
  viability, T/C: 29.5%
[24]
  viability, T/C: 20%
[25]
  viability, T/C: 55.3%
[26]
  viability, T/C: 51.8%
[27]
  viability, T/C: 38.6%
[28]
  viability, T/C: 33.8%
[29]
  viability, T/C: 22.6%
[30]
  viability, T/C: 16.6%
[31]
  viability, T/C: 43.1%
[32]
  viability, T/C: 41.1%
[33]
  viability, T/C: 34%
[34]
  viability, T/C: 25.9%
[35]
  viability, T/C: 16.7%
[36]
  viability, T/C: 12.3%
